Test system: primary rat hepatocytes
Experiment: DCA-induced apoptosis, nuclear fragmentation by Hoechst staining
Assay type: cell-based
Conditions: for prevention of nuclear fragmentation: 50 μM DCA, 100 μM compound pretreatment, FIG. 7C
Experimental: Primary rat hepatocytes were isolated from male rats (100-150 grams) by collagenase perfusion (as described by Solá S, et al., 2003, Journal of Biological Chemistry 278: 48831-48838)). Briefly, rats were anesthetized with phenobarbital sodium (100 mg/kg body weight) injected into the peritoneal cavity. After administration of heparin (200 units/kg body weight) in the tail vein, the animal's abdomen was opened and the portal vein exposed and cannulated. The liver was then perfused at 37° C. in situ with a calcium-free Hanks' Balanced Salt Solution (HBSS) for about 10 minutes, and then with 0.05% collagenase type IV in calcium-present HBSS for another 10 minutes. Hepatocyte suspensions were obtained by passing collagenase-digested livers through 125 μm gauze and washing cells in Complete William's E medium (William's E medium, Sigma-Aldrich Corp., St Louis, Mo., USA) supplemented with 26 mM sodium bicarbonate, 23 mM HEPES, 0.01 units/mL insulin, 2 mM L-glutamine, 10 nM dexamethasone, 100 units/mL penicillin, and 10% heat-inactivated fetal bovine serum (Invitrogen Corp., Carlsbad, Calif., USA). Viable primary rat hepatocytes were enriched by low-speed centrifugation at 200 g for 3 minutes. Cell viability was determined by trypan blue exclusion and was typically 80-85%. After isolation, hepatocytes were resuspended in Complete William's E medium and plated on PrimariaTM tissue culture dishes (BD Biosciences, San Jose, Calif., USA) at 5×10^4 cells/cm^2. Cells were maintained at 37° C. in a humidified atmosphere of 5% CO2 for 6 hours to allow attachment. […] Fluorescence was visualized using an Axioskop fluorescence microscope (Carl Zeiss GmbH). Blue-fluorescent nuclei were scored blindly and categorized according to the condensation and staining characteristics of chromatin. […] Five random microscopic fields per sample containing approximately 150 nuclei were counted, and mean values expressed as the percentage of apoptotic nuclei. […] Results are expressed as means±SEM of at least three experiments. *p<0.01 from control; § p<0.05 and †p<0.01 from respective DCA.

| Molecule | prevention of nuclear fragmentation [%] | more effective than UDCA at reducing the percentage of apoptotic cells (DCA, Compound 5 versus UDCA) [%] |
| --- | --- | --- |
| 7,8-[^2H]-3α,7α-dihydroxy-5β-cholan-24-oic acid/7-[^2H]-3α,7α-dihydroxy-5β-cholan-24-oic acid [Compound 5] | ~65 | ~15 |
| C[C@H](CCC(=O)O)[C@H]1CC[C@H]2[C@@H]3[C@@H](O)C[C@@H]4C[C@H](O)CC[C@]4(C)[C@H]3CC[C@]12C [UDCA, Ursodeoxycholic acid, reference compound] | ~50 | – |

Source: patent US10144758B2, “Deuterated bile acids” (Metselex, Inc., priority 2013, dated 2018)
